Measured values published in doi:10.1101/469072v1 (biorxiv, 2018).
Like-named read-outs stand apart in the source and are kept apart here.

Legend:
NfGlck [1] = assay: coupled glucokinase assay, absorbance at […] nm; format: biochemical, Naegleria fowleri
NfGlck [2] = assay: coupled glucokinase assay, absorbance at […] nm; format: biochemical, Naegleria fowleri; details: read-out: apparent Km, MgCl2
TbHK1 [3] = target: T1, TbHK1 (Trypanosoma brucei, UniProt Q38C42); details: read-out: TbHK1 IC50; inhibitor
T1 sequence (Q38C42 1-471): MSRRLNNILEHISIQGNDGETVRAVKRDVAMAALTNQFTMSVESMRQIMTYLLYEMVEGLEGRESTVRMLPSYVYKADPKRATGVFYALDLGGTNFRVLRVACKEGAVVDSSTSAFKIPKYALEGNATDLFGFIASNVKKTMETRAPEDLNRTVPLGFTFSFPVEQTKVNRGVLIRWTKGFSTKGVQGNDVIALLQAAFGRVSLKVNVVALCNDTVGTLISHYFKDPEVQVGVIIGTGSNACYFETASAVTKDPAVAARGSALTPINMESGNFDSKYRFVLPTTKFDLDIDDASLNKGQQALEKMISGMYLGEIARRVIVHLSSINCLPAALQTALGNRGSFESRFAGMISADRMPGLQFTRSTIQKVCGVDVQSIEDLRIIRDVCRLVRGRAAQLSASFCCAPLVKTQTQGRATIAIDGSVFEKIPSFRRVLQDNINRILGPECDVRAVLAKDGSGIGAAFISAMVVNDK

HsGlck [4] = target: T2, HsGlck (Homo sapiens, UniProt P35557); assay: biochemical
T2 sequence (P35557 1-465): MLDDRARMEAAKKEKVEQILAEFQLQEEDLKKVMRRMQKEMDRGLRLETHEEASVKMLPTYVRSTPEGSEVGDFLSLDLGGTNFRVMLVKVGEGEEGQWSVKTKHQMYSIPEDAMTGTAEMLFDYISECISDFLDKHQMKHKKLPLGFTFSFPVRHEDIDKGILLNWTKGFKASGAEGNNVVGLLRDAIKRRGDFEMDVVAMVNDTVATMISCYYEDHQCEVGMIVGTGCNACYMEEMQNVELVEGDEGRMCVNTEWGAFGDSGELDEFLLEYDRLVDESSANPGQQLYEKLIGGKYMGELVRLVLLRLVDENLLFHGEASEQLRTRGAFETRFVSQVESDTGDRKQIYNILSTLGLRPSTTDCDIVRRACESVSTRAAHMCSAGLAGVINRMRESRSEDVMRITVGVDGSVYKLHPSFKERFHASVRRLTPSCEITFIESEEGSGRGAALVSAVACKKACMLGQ

TbHK1 [5] = target: T1, TbHK1; assay: enzyme inhibition assay; format: biochemical
PfHK = target: T3, PfHK (Plasmodium falciparum, UniProt Q02155); assay: enzyme inhibition assay; format: biochemical
T3 sequence (Q02155 1-493): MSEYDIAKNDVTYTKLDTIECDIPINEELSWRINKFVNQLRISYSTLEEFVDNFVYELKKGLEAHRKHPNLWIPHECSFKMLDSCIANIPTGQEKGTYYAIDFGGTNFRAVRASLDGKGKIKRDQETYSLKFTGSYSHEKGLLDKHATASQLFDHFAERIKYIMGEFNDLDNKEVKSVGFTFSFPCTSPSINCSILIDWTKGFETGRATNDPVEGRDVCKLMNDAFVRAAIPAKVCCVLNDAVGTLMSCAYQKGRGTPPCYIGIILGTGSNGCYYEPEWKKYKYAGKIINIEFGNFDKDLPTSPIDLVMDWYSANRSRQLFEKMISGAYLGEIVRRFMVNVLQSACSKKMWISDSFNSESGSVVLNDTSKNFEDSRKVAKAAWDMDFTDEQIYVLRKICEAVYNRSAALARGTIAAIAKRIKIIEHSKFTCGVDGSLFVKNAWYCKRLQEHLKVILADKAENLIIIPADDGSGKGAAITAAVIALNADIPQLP

NfGlck [6] = assay: coupled glucokinase assay, absorbance at […] nm; format: biochemical, Naegleria fowleri; details: pH 7.4, MgCl2
HsGlck [7] = target: T2, HsGlck; assay: enzyme inhibition assay; format: biochemical
[8] = mixed inhibitor with respect to ATP

SMILES | IC50 (TbHK1 [5]) | IC50 (HsGlck [7]) | IC50 (NfGlck [6]) | other results
Nc1ncnc2c1ncn2[C@@H]1O[C@H](COP(=O)(O)OP(=O)(O)O)[C@@H](O)[C@H]1O [ADP] |  |  |  | Ki (NfGlck [1]): 116 ± 7 µM
Nc1ncnc2c1ncn2[C@@H]1O[C@H](COP(=O)(O)OP(=O)(O)OP(=O)(O)O)[C@@H](O)[C@H]1O [ATP] |  |  |  | Km (NfGlck [2]; co-substrate glucose): 142 ± 9.9 µM
CC(C)(C)c1ccc(C(=O)Nc2cc(Cl)c(-c3ccc(C(F)(F)F)cc3)cc2C(=O)O)cc1 [SID162211070] |  |  |  | IC50 (TbHK1 [3]): > 10 µM; IC50 (HsGlck [4]): > 10 µM
CC(C)(C)c1ccc(C(=O)Nc2cc(Cl)c(-c3ccc(C(=O)O)cc3)cc2C(=O)O)cc1 [SID162211072] |  |  |  | IC50 (TbHK1 [3]): 3.5 µM; IC50 (HsGlck [4]): > 10 µM
CC(C)(C)c1ccc(C(=O)Nc2cc(Cl)c(-c3ccc(OC(F)(F)F)cc3)cc2C(=O)O)cc1 [SID162211074] |  |  |  | IC50 (TbHK1 [3]): > 10 µM; IC50 (HsGlck [4]): > 10 µM
CC(C)(C)c1ccc(C(=O)Nc2cc(Cl)c(-c3cccc([N+](=O)[O-])c3)cc2C(=O)O)cc1 [SID162211082] |  |  |  | IC50 (TbHK1 [3]): > 10 µM; IC50 (HsGlck [4]): > 10 µM
NC(N)=Nc1ccc(-c2ccc(-c3ccc(N=C(N)N)cc3Cl)o2)c(Cl)c1 [compound 1, 2-[3-chloro-4-[5-[2-chloro-4-(diaminomethylideneamino)phenyl]furan-2-yl]phenyl]guanidine] | 2.9 ± 1.13 µM | > 10 µM |  | IC50 (PfHK): 0.78 ± 0.17 µM; IC50 (NfGlck [6]; [8]): 2.02 ± 0.31 µM
NC(N)=Nc1ccc(-c2ccc(-c3ccc(N=C(N)N)c(Cl)c3)o2)cc1Cl [compound 2, 2-[2-chloro-4-[5-[3-chloro-4-(diaminomethylideneamino)phenyl]furan-2-yl]phenyl]guanidine] | 1.3 ± 0.43 µM | 2.58 ± 0.53 µM |  | IC50 (PfHK): 0.16 ± 0.06 µM; IC50 (NfGlck [6]; [8]): 0.7 ± 0.09 µM
O=c1c2ccccc2[se]n1-c1ccccc1 [compound 3, 2-phenyl-1,2-benzisoselenazol-3(2H)-one] |  |  | 0.88 ± 0.06 µM | 
O=c1c2ccccc2sn1-c1ccccc1 [compound 4, Ebsulfur] |  |  | > 10 µM | 
CC(C)(C)c1ccc(C(=O)Nc2cc(Cl)c(-c3ccccc3)cc2C(=O)O)cc1 [compound 8, SID144241590] | 0.28 µM | > 10 µM | > 10 µM | IC50 (PfHK): > 10 µM
COc1cccc(-c2cc(C(=O)O)c(NC(=O)c3ccc(C(C)(C)C)cc3)cc2Cl)c1 [compound 14, SID162211075] | 3.9 ± 0.65 µM |  | > 10 µM | 
COc1ccccc1-c1cc(C(=O)O)c(NC(=O)c2ccc(C(C)(C)C)cc2)cc1Cl [compound 15, SID162211076] | 9.3 ± 0.55 µM | > 10 µM | > 10 µM | 
N[C@H]1C(O)O[C@H](CO)[C@@H](O)[C@@H]1O (stereo partly shown) [glucosamine] |  |  |  | Ki (NfGlck [1]; competitive inhibitor of glucose): 186 ± 20.6 µM
OC[C@H]1OC(O)[C@H](O)[C@@H](O)[C@@H]1O (stereo partly shown) [glucose] |  |  |  | Km (NfGlck [2]; co-substrate ATP): 42.5 ± 7.3 µM

Continued, in another order:

IC50 (TbHK1 [5]) | IC50 (HsGlck [7]) | IC50 (NfGlck [6]) | SMILES | other results
6.7 ± 0.38 µM | > 10 µM | > 10 µM | CC(C)(C)c1ccc(C(=O)Nc2cc(Cl)c(C3CC3)cc2C(=O)O)cc1 [compound 6, SID162211071] | 
> 10 µM | > 10 µM | > 10 µM | CC(C)(C)c1ccc(C(=O)Nc2cc(Cl)c(-c3cccnc3)cc2C(=O)O)cc1 [compound 7, SID162211077] | 
> 10 µM | > 10 µM | > 10 µM | CC(C)(C)c1ccc(C(=O)Nc2cc(Cl)c(-c3cccc(F)c3)cc2C(=O)O)cc1 [compound 9, SID162211078] | 
6.7 ± 1 µM | > 10 µM | > 10 µM | CC(C)(C)c1ccc(C(=O)Nc2cc(Cl)c(-c3ccccc3F)cc2C(=O)O)cc1 [compound 10, SID162211083] | 
> 10 µM | > 10 µM | 6.5 ± 0.61 µM | CC(C)(C)c1ccc(C(=O)Nc2cc(Cl)c(-c3cccc(Cl)c3)cc2C(=O)O)cc1 [compound 11, SID162211084] | 
> 10 µM | > 10 µM | 5.9 ± 0.26 µM | CC(C)(C)c1ccc(C(=O)Nc2cc(Cl)c(-c3ccc(F)c(Cl)c3)cc2C(=O)O)cc1 [compound 12, SID162211073] | 
> 10 µM | > 10 µM | 2.9 ± 0.32 µM | CC(C)(C)c1ccc(C(=O)Nc2cc(Cl)c(-c3ccc(Cl)c(Cl)c3)cc2C(=O)O)cc1 [compound 13, SID162211080] | 
3.1 ± 0.17 µM | > 10 µM | > 10 µM | CC(C)(C)c1ccc(C(=O)Nc2cc(Cl)c(-c3ccc(O)cc3)cc2C(=O)O)cc1 [compound 16, SID162211079] | 
1.2 ± 0.1 µM | > 10 µM | > 10 µM | CC(C)(C)c1ccc(C(=O)Nc2cc(Cl)c(-c3ccccc3O)cc2C(=O)O)cc1 [compound 17, SID162211085] | 
> 10 µM | > 10 µM | > 10 µM | Cc1ccccc1-c1cc(C(=O)O)c(NC(=O)c2ccc(C(C)(C)C)cc2)cc1Cl [compound 18, SID162211086] | 
